Experimental data from US20160152566A1, “TRICYCLIC PYRROLE COMPOUNDS, THEIR PREPARATION AND USE IN MEDICAMENTS” (INSTITUTO BIOMAR, S.A., priority 2013, published 2016).

Experiments:
BAE cells [1] = assay: MTT dye reduction cell growth assay, BAE cells; assay type: cell-based, Bovine; conditions: Bos taurus, 72 h, subconfluent BAE cells stimulated with 10% FBS, 3 days, read-out: IC50, growth of cultured BAE cells
Method: The 3-(4,5-dimethylthiazol-2-yl)-2,5 diphenyltetrazolium bromide (MIT; Sigma Chemical Co., St. Louis, Mo.) dye reduction assay in 96-well microplates was used. The assay is dependent on the reduction of MTT by mitochondrial dehydrogenases of viable cell to a blue formazan product, which can be measured spectrophotometrically.
3×10^3 BAE cells in a total volume of 100 μl of complete medium were incubated in each well with serial dilutions of the compound AD0157 obtained as explained above. After 3 days of incubation in the dark (37° C., 5% CO2 in a humid atmosphere), 10 μl of MTT (5 mg/ml in PBS) was added to each well and the plate was incubated for further 4 h (37° C.). The resulting formazan was dissolved in 150 μl of 0.04 N HCl-2 propanol and read at 550 nm. All determinations were carried out in triplicate, independent experiments. IC50 values were calculated as those concentrations of AD0157 yielding 50% cell survival, taking the values obtained for control as 100%.

[2] = tested on: endothelial and tumor cells; assay: Hoechst staining of nuclear morphology; assay type: cell-based; conditions: 14 h treatment, endothelial and most types of tumor cells
Method: For Hoechst staining experiments, cells were seeded on 8-well chamber slides and grown to sub-confluence. After treatments for 14 h with the indicated concentrations of the compound in complete medium, cells were washed (PBS) and fixed (formalin solution, Sigma). Chamber slides were stained with Hoechst, mounted (DAKO Cytomation Fluorescent Mounting Medium, DAKO), and observed under a fluorescence microscope (Leica, TCS-NT).

BAE cells [3] = assay: Capillary tube formation on Matrigel; assay type: cell-based, Bovine; conditions: BAECs, 7 h
Method: (§1) Matrigel (50 μL of about 10.5 mg/mL) at 4° C. was used to coat each well of a 96-well plate and allowed to polymerise at 37° C. for a minimum of 30 min. 5×10^4 BAE cells were added with 200 μL DMEM. Finally, different amounts of the Compound AD0157 were added and incubated at 37° C. in a humidified chamber with 5% CO2. After incubation for 7 h, cultures were observed (40× and 100× magnifications) and photographed with a NIKON inverted microscope DIAPHOT-TMD (Nikon, Tokyo, Japan). Each concentration was tested in duplicate, and two different observers evaluated the inhibition of tube formation. To check the viability of endothelial cells after the treatment with the compounds in this assay, BAE cells were incubated in 96-well plate in the same conditions employed for the tube formation assay. After 7 h, cell viability in comparison to control untreated cells was determined by the addition of MTT essentially as described for the cell growth assay.

BAE cells [4] = assay: Viability (MTT) under tube formation conditions; assay type: cell-based, Bovine; conditions: 7 h, at the concentrations used to inhibit differentiation
Method: as §1

BAE cells [5] = assay: Tube formation with Cytodex beads on Matrigel; assay type: cell-based, Bovine; conditions: 48 h
Method: 3×10^4 BAE cells, were cultured with Cytodex beads, and allowed to adhere to them. The beads were added in 200 μL DMEM per well to a 96-well plate that has been previously prepared as follows: different amounts of the compound AD0157 were dispensed in a 96 well plate. Matrigel (50 μL) at 4° C. was used to coat each well of and allowed to polymerise at 37° C. for a minimum of 30 min. After polymerization, the beads carrying the endothelial cells were added to the wells. The plate was incubated at 37° C. in a humidified chamber with 5% CO2. After incubation for 48 h, cultures were observed using an optical microscope. Each concentration was tested in triplicate. Inhibition of tube formation was obtained at 9.3 uM.

HT1080 MMP-2 = assay: Gelatin zymography, HT1080 cells, MMP-2; assay type: cell-based, Human; conditions: 24 h
Method: BAE or HT1080 cells were grown in 6-well plates at 75% subconfluency in 6-well plates, medium was aspirated, cells were washed twice with phosphate-buffered saline (PBS) and each well received 1.5 ml of DMEM/0.1% BSA containing 200 KIU of Aprotinin/mL. Additionally, some wells received the indicated concentration of AD0157. After 24 h of incubation, conditioned media were collected. To obtain the cell extracts, the cells were washed twice with PBS and harvested by scrapping into 0.5 mL of 0.2% Triton X-100 in 0.1 M Tris/HCl containing 200 KIU aprotinin/mL. Media were centrifuged at 1000×g and 4° C. for 20 min, and used for zymography. Duplicates were used to determine cell number with a Coulter counter.
The gelatinolytic activity of MMP-2 delivered to the conditioned media and cell extracts were detected in gelatinograms. Samples were subjected to non-reducing SDS/PAGE as above but with gelatin (1 mg/mL) added to the 10% resolving gel. After electrophoresis, gels were washed twice with 50 mM Tris/HCl, pH 7.4, supplemented with 2% Triton X-100, and twice with 50 mM Tris/HCl, pH 7.4. […] Then, the gels were stained with Commassie blue R-250 and the bands of gelatinase activity could be detected as non-stained bands in a dark, stained background.
Quantitative analysis of zymograms and gelatinograms was performed with the Scion Image 4.0.3.2 Program.

HT1080 MMP-9 = assay: Gelatin zymography, HT1080 cells, MMP-9; assay type: cell-based, Human; conditions: 24 h
[6] = tested on: chick chorioallantoic membrane; assay: Chick chorioallantoic membrane (CAM) angiogenesis assay; assay type: in vivo; conditions: 48 h
Method: Fertilised chick eggs were incubated horizontally at 38° C. in a humidified incubator, windowed by day 3 of incubation, and processed by day 8. The tested compound stock solution was added to a 1.2% solution of methylcellulose in water, and 10 μL drops of this solution were allowed to dry on a teflon-coated surface in a laminar flow hood. Then, the methylcellulose discs were implanted on the CAM, the eggs were sealed with adhesive tape and returned to the incubator for 48 h. Negative controls were always made with DMSO mixed with the methylcellulose. After the reincubation, the CAM was examined under a stereomicroscope. The assay was scored as positive when two independent observers reported a significant reduction of vessels in the treated area.

[7] = tested on: zebrafish intersegmental vessels; assay: Zebrafish embryo intersegmental vessel assay (TGfli1:EGFPy1); assay type: in vivo; conditions: 24 h
Method: Zebrafish embryos were generated by natural pairwise mating and maintained in embryo water at 28.5° C. […] Embryos were manually dechorionated with forceps at 24 h post-fertilization (hpf), they were arrayed in 96-well plate, one embryo per well, and incubated with 100 μl of the indicated concentrations of the tested compounds at 28.5° C. for 24 h. DMSO was used as both carrier of drugs and control. After incubation, fish embryos were anesthetized with tricaine (0.02%), placed on slides and examined under an epifluorescence Nikon microscope equipped with DS-L1 Nikon digital camera. Phenotypic changes were evaluated by two different observers.

## C/C=C/C(=O)C1(O)CC2CC(C(=O)O)CC(C)C2C1C(=O)C1=C(/C=C/C)C(=O)C2(Cl)C3(CCCCCC)C(=O)NC(=O)C23C1=O (stereo not shown) [AD0157]
BAE cells [1]
  IC50: 10.9 µM
[2]
  Concentration inducing chromatin condensation: above 5 μM
BAE cells [3]
  Concentration giving complete inhibition of endothelial morphogenesis on Matrigel: 5 µM
  Concentration giving partial inhibition of endothelial morphogenesis on Matrigel: 1 µM
BAE cells [4]
  Viability of endothelial cells: did not affect the viability
BAE cells [5]
  Concentration giving inhibition of tube formation: 9.3 µM
HT1080 MMP-2
  MMP-2 levels in HT1080 conditioned media and cellular extracts: no effect
HT1080 MMP-9
  MMP-9 levels in HT1080 conditioned media and cellular extracts: no effect
[6]; 0.1 nmol/CAM
  % Inhibition: 20%
  Positive/total: 1/5
[6]; 0.5 nmol/CAM
  % Inhibition: 83%
  Positive/total: 5/6
[6]; 1 nmol/CAM
  % Inhibition: 100%
  Positive/total: 6/6
[6]; 5 nmol/CAM
  % Inhibition: 100%
  Positive/total: 6/6
[7]; 5 μM
  % Inhibition: 25%
  Positive/total: 5/20
[7]; 10 μM
  % Inhibition: 48%
  Positive/total: 12/25
[7]; 25 μM
  % Inhibition: 85%
  Positive/total: 17/20
